Test in all cases: NCI tumour cell line growth inhibition, 48 h
Experiment [1] deals with A549 NSCLC.
The test system of experiment [2] is OVCAR-8 ovarian.
The test system of experiment [3] is SNB-19 CNS.
Experiment [4] deals with RXF 393 renal.
Experiment [5] relates to K-562 leukemia.
Experiment [6] has as its system HOP-62 NSCLC.
The test system of experiment [7] is COLO 205 colon.
Experiment [8] has as its system SNB-75 CNS.
In experiment [9] the test system is HS 578T breast.
Experiment [10] concerns NCI-H226 lung.
For experiment [11], the system named is DU-145 prostate.
The test system of experiment [12] is SK-OV-3 ovarian.
Experiment [13] relates to SF-268 CNS.
Experiment [14] relates to UO-31 renal.
Experiment [15] deals with SF-539 CNS.
The test system of experiment [16] is SN12C renal.
Experiment [17] relates to OVCAR-5 ovarian.
For experiment [18], the system named is 786-0 renal.

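How tested: cells in 96-well plates exposed to compound for 48 hours at five concentrations. TGI: total growth inhibition.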 Some results are limits rather than exact numbers.

Regarding `Nc1ncnc2c1nnn2C1C=CC(COS(N)(=O)=O)C1` (stereo unspecified), the TGI in [1] is > 100 µM; in experiment [2], 55 µM; in experiment [3] it was 33.3 µM; in experiment [4], 86 µM; in experiment [5], > 100 µM; in [6] it was > 100 µM. Also, the TGI in experiment [7] was 17.4 µM; in [8], 39.3 µM; in experiment [9] it was 8.3 µM; in [10], 42.1 µM; in experiment [11], > 100 µM; in experiment [12], > 100 µM. For the same compound, the TGI is 93.6 µM in experiment [13]; 49 µM in experiment [14]; 7.39 µM in [15]; > 100 µM in [16]; 49.3 µM in experiment [17]; 33.3 µM in experiment [18].
Take `O=S(=O)(c1ccccc1)n1c2ccc(Br)cc2c2nc3ccccc3nc21`: the TGI in experiment [1], in experiment [2], in [3], in [4], in [5] and in experiment [6] was > 100 µM throughout. The TGI in experiment [7], in experiment [8], in experiment [9], in [10], in [11] and in [13] was > 100 µM throughout. Further, the TGI in experiment [14], in [16], in experiment [17] and in experiment [18] was > 100 µM each time.
Regarding `Cc1ccsc1/C=N/Nc1nc2ccccc2s1`, the TGI in experiment [1] was 50.5 µM; in [2], > 100 µM; in experiment [3], 26.9 µM; in experiment [4], 29 µM; in [5], 34.9 µM; in experiment [6] it was 22.4 µM. For the same compound, the TGI was > 100 µM in [7]; 35.6 µM in experiment [8]; 78.2 µM in experiment [9]; 51.9 µM in experiment [10]; > 100 µM in experiment [11]; 35.3 µM in [12]. The TGI in [13] is 66.7 µM; in [14], > 100 µM; in experiment [16], 41.3 µM; in experiment [17] it was > 100 µM; in experiment [18] it was 24.7 µM.
As to `CCN(CC)CC1CCCCN1CC(=O)N1c2ccccc2NC(=O)CC1C` (stereo unspecified), the TGI in [1], in experiment [2], in [3], in [4], in [5] and in [6] was > 100 µM each time. Also, the TGI in [7], in [9], in experiment [10], in [11], in [12] and in experiment [13] was > 100 µM in each case. Moreover, the TGI in [14], in [15], in experiment [16], in experiment [17] and in [18] was > 100 µM throughout.
For the compound `Oc1ccc(-c2nc(-c3cccnc3)c(-c3ccc(Cl)cc3)[nH]2)cc1O`, the TGI in experiment [1] was 54.1 µM; in experiment [2], 30.2 µM; in [3], 27.1 µM; in experiment [4], 25.6 µM; in experiment [5] it was > 100 µM; in experiment [6], 25.3 µM. In addition, the TGI was 30.3 µM in experiment [7]; 20.2 µM in [8]; 36.4 µM in experiment [9]; 37.1 µM in experiment [10]; 90.8 µM in [11]; 25.5 µM in experiment [12]. The TGI in [13] was 39.7 µM; in experiment [14], 26.8 µM; in [16], 31.3 µM; in [17], 35.3 µM; in experiment [18] it was > 100 µM.
Turning to `CC1(C)N=C(C(N)=O)c2ncn(N)c2N1`, the TGI in experiment [1], in experiment [2], in experiment [3], in experiment [4], in [5] and in experiment [6] was > 100 µM each time. Further, the TGI in experiment [7], in experiment [8], in experiment [9], in experiment [10], in experiment [11] and in experiment [12] was > 100 µM throughout. In addition, the TGI in experiment [13], in experiment [15], in experiment [16], in experiment [17] and in experiment [18] was > 100 µM throughout.
For the compound `CCOC(=O)C1=CNC(C(=O)OCC)C1c1cccn1-c1ccc(Cl)cc1[N+](=O)[O-]` (stereo unspecified), the TGI is > 100 µM in experiment [1]; 90.6 µM in experiment [2]; 36.7 µM in experiment [4]; 85.9 µM in [5]; 53.6 µM in experiment [6]; > 100 µM in [7]. Moreover, the TGI in experiment [8] is 51.4 µM; in [9] it was 50.5 µM; in experiment [10], 50 µM; in [11], > 100 µM; in [12] it was > 100 µM; in experiment [13], 55.5 µM. Besides, the TGI is > 100 µM in experiment [14]; 30.8 µM in [15]; 37.8 µM in experiment [16]; 60.3 µM in [17]; 45.9 µM in experiment [18].
With `O=C(NCCC1([N+](=O)[O-])CCN(C(=O)c2ccccc2)CC1)c1ccccc1`, the TGI in [1], in [2], in [3], in experiment [4], in [5] and in [7] was > 100 µM throughout. For the same compound, the TGI in experiment [9], in experiment [10], in experiment [11], in experiment [12], in [13] and in [14] was > 100 µM throughout. For the same compound, the TGI in experiment [15], in experiment [16], in experiment [17] and in experiment [18] was > 100 µM each time.
Regarding `CC(=O)N=C1N(/C=C2\C(=O)Oc3ccccc3C2=O)C(=O)/C(=C/c2ccc(OC(C)=O)cc2)N1C`, the TGI in experiment [1], in experiment [2], in experiment [4], in [5], in [6] and in experiment [7] was > 100 µM in each case. For the same compound, the TGI in experiment [8], in experiment [9], in experiment [10], in experiment [11], in experiment [12] and in experiment [13] was > 100 µM each time. Besides, the TGI in experiment [15], in experiment [16], in [17] and in experiment [18] was > 100 µM throughout.
In the case of `COC(=O)c1c(O)ccc2c1c1c(n2Cc2ccccc2Cl)C(=O)c2ccccc2C1=O`, the TGI in [1] amounted to 26.7 µM; in [2], 51.5 µM; in experiment [3], 33.7 µM; in experiment [4], 41.3 µM; in experiment [5] it was 97.3 µM; in experiment [6] it was 47.9 µM. The TGI in experiment [7] was determined as 15.8 µM; in [9], 59 µM; in experiment [10] it was 36.6 µM; in [11], 29 µM; in [12] it was 27.2 µM; in [13], 29.4 µM. For the same compound, the TGI in experiment [14] came out at 24.8 µM; in [15], 30 µM; in experiment [16], 23.2 µM; in experiment [17] it was 39.4 µM; in [18] it was 36.4 µM.
Take `CC(O)c1cc2c(s1)C(=O)c1sccc1C2=O` (stereo unspecified): the TGI in experiment [1] is 0.767 µM; in [2], 0.616 µM; in experiment [3], 0.292 µM; in [4] it was 0.351 µM; in [5] it was > 100 µM; in experiment [6] it was 0.406 µM. Besides, the TGI in [7] was 1.09 µM; in [8] it was 0.218 µM; in experiment [9] it was > 100 µM; in [10], 0.428 µM; in experiment [11], 0.0347 µM; in experiment [12] it was 4.18 µM. For the same compound, the TGI in experiment [13] is 0.61 µM; in experiment [14] it was 0.359 µM; in experiment [16] it was 0.192 µM; in experiment [17], 0.368 µM; in experiment [18], 0.538 µM.
`Cc1c(Cl)nc(Nc2nc3ccccc3[nH]2)nc1Cl`: the TGI in experiment [1], in [2], in [3], in experiment [4], in [5] and in experiment [7] was > 100 µM each time. For the same compound, the TGI in experiment [8] was > 100 µM; in experiment [9] it was 82 µM; in experiment [10] it was > 100 µM; in [11], > 100 µM; in experiment [12], > 100 µM; in [13], > 100 µM. Further, the TGI in experiment [14], in experiment [15], in experiment [16], in [17] and in [18] was > 100 µM throughout.
On to `O=C1CCC2(CC1CC(Sc1ccccc1)Sc1ccccc1)OCCO2` (stereo unspecified), for which the TGI in experiment [1], in experiment [2], in experiment [3], in [4], in [5] and in [6] was > 100 µM in each case. Also, the TGI in experiment [7] was 66.1 µM; in [8] it was > 100 µM; in experiment [9], 88.1 µM; in [10] it was > 100 µM; in experiment [11], > 100 µM; in experiment [12] it was > 100 µM. The TGI in experiment [13], in experiment [14], in experiment [15], in [17] and in experiment [18] was > 100 µM in each case.
With `O=C(c1ccco1)N1CCCN(C(=O)c2ccco2)C1=S`, the TGI in experiment [2], in [3], in experiment [4], in experiment [5], in experiment [6] and in [7] was > 100 µM in each case. In addition, the TGI in experiment [9], in experiment [10], in [11], in [12], in experiment [13] and in [14] was > 100 µM throughout. For the same compound, the TGI in [15], in experiment [16], in [17] and in experiment [18] was > 100 µM throughout.
With `Cn1c(=O)c(C(=O)Nc2nc(C34CC5CC(CC(C5)C3)C4)cs2)c(O)c2ccccc21`, the TGI in experiment [1] was > 100 µM; in experiment [2], > 100 µM; in experiment [3] it was > 100 µM; in experiment [4], 65 µM; in experiment [5], > 100 µM; in [6], 36.2 µM. Further, the TGI in experiment [7], in experiment [8], in experiment [9], in experiment [10], in experiment [11] and in experiment [13] was > 100 µM in each case. Also, the TGI in experiment [14], in [15], in [16], in experiment [17] and in [18] was > 100 µM throughout.
Turning to `O=CN1CCN(C(=O)c2ccc(Cl)cc2Cl)C1=S`, the TGI in experiment [1], in [2], in experiment [3], in experiment [4], in experiment [5] and in experiment [6] was > 100 µM throughout. The TGI in experiment [7] was > 100 µM; in experiment [8], 85.5 µM; in experiment [9] it was > 100 µM; in experiment [10], > 100 µM; in experiment [11], > 100 µM; in experiment [12], > 100 µM. The TGI in experiment [13], in [15], in [16], in experiment [17] and in experiment [18] was > 100 µM throughout.
Turning to `NC(N)=N/N=C/c1nc2n(c1[N+](=O)[O-])CCS2`, the TGI in [1] is > 100 µM; in experiment [2] it was > 100 µM; in experiment [3], > 100 µM; in experiment [4], 65.3 µM; in [6] it was > 100 µM; in [7] it was 27.4 µM. Moreover, the TGI in experiment [8] is 60.2 µM; in [9], > 100 µM; in experiment [10], > 100 µM; in experiment [11], 88.2 µM; in experiment [12] it was > 100 µM; in experiment [13] it was > 100 µM. Moreover, the TGI in [14], in experiment [15], in [16], in experiment [17] and in experiment [18] was > 100 µM throughout.
